Assay results published in patent US20130202719A1, “STABILIZED CHLORITE SOLUTIONS IN COMBINATION WITH FLUROPYRIMIDINES FOR CANCER” (NUVO RESEARCH AG, priority 2005, published 2013).

Columns and labels:
DPD = molecular target: T1, DPD (Homo sapiens, UniProt Q12882); settings: in vivo; cited from earlier work
T1 construct: More than 80% of an administered dose of 5-FU is eliminated by catabolism through DPD
T1 sequence (Q12882 4-1025): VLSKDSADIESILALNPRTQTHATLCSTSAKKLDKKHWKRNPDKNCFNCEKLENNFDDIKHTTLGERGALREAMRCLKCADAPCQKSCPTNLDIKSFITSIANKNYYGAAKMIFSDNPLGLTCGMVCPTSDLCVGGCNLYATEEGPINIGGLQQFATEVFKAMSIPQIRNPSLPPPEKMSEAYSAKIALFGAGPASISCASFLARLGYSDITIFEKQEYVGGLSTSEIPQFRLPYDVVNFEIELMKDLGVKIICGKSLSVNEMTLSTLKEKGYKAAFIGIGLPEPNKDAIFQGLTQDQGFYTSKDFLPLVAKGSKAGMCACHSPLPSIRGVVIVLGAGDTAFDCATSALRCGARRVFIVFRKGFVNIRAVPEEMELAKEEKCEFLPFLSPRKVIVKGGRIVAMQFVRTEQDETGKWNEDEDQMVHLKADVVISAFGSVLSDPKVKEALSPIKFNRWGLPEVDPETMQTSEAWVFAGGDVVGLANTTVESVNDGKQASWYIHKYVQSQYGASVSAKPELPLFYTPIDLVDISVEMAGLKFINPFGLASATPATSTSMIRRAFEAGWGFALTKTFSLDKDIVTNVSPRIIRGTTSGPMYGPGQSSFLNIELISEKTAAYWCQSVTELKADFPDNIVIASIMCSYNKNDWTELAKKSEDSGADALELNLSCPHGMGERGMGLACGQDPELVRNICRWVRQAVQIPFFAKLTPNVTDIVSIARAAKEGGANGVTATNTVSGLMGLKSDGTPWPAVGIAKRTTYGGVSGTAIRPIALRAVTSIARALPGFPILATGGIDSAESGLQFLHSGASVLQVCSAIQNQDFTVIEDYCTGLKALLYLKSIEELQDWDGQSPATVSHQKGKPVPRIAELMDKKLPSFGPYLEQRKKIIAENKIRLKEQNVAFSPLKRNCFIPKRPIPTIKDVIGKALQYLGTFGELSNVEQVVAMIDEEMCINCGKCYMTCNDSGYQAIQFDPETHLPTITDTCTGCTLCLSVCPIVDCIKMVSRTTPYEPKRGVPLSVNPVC

[1] = phase II study, advanced or metastatic pancreatic cancer; cited from earlier work

## O=c1[nH]cc(F)c(=O)[nH]1 [5-FU, 5-Fluorouracil]
DPD
  administered dose eliminated by catabolism through DPD: More than 80%

## Nc1ccn([C@@H]2O[C@H](CO)[C@@H](O)C2(F)F)c(=O)n1 [gemcitabine]
Case Report #3
  disease progression: rapidly progressing metastasis
Case Report #3, T4NxM1
  QOL: declining QOL

## CCCCCOC(=O)Nc1nc(=O)n([C@@H]2O[C@H](C)[C@@H](O)[C@H]2O)cc1F [capecitabine]
human, in vivo
  side effects: development of Xeloda-related side effects
[1]
  Median survival: 182 days
